This is an account of results in ChEMBL document CHEMBL1150723, “Traditional medicinal plants of Thailand, VIII. Isoflavonoids of Dalbergia candenatensis” (1987).

≈ marks a conversion by molar mass, not a printed value. Calls of active or inactive are those of the source. The rule behind the calls is not given here.

Assay type in all cases: functional
The subject of assay [1] is Staphylococcus aureus. The assay is described as follows: Antibacterial activity against Staphylococcus aureus ATCC 25923 after 16 hrs by microdilution assay. Conditions: ATCC 25923, 16 h.
In assay [2] the test system is Bacillus subtilis. As to the kind of experiment: Antibacterial activity against Bacillus subtilis ATCC 6633 after 16 hrs by microdilution assay. The settings on record: ATCC 6633, 16 h.
Assay [3] deals with Escherichia coli. The assay is described as follows: Antibacterial activity against Escherichia coli ATCC 25922 after 16 hrs by microdilution assay. The settings on record: ATCC 25922, 16 h. A general note: Dilution methods test growth across graded concentrations, often in twofold steps.
The subject of assay [4] is Candida albicans. As to the kind of experiment: Antifungal activity against Candida albicans ATCC 10259 after 3 days by microdilution assay.
Assay [5] deals with Penicillium expansum. As to the kind of experiment: Antifungal activity against Penicillium expansum ATCC 7861 after 3 days by microdilution assay.
The subject of assay [6] is Aspergillus niger. As to the kind of experiment: Antifungal activity against Aspergillus niger ATCC 6275 after 3 days by microdilution assay.
The subject of assay [7] is Trichophyton mentagrophytes. As to the kind of experiment: Antifungal activity against Trichophyton mentagrophytes ATCC 9533 after 3 days by microdilution assay.
The subject of assay [8] is P388. As to the kind of experiment: Cytotoxicity against mouse P388 cells.

In the case of `COc1ccc([C@@H]2COc3cc(O)ccc3C2)c(O)c1`, the MIC (usually the least concentration at which growth counts as inhibited) in assay [1] is > 100 µg/mL; in assay [2] it was 50 µg/mL (≈ 184 µM); in assay [3] it was 50 µg/mL (≈ 184 µM); in assay [4] (ATCC 10259, 72 h), > 100 µg/mL; in assay [5] (ATCC 7861, 72 h), > 100 µg/mL; in assay [6] (ATCC 6275, 72 h), > 100 µg/mL. In assay [7] (ATCC 9533, 72 h), the MIC amounted to 25 µg/mL (≈ 91.8 µM).

Consider `COc1ccc(-c2coc3cc(O)ccc3c2=O)cc1` [FORMONONETIN], for which the MIC was > 100 µg/mL in assay [1]; > 100 µg/mL in assay [2]; 100 µg/mL (≈ 373 µM) in assay [3]; > 100 µg/mL in assay [4] (ATCC 10259, 72 h); 50 µg/mL (≈ 186 µM) in assay [5] (ATCC 7861, 72 h); 100 µg/mL (≈ 373 µM) in assay [6] (ATCC 6275, 72 h). Moreover, the minimum inhibitory concentration (MIC) in assay [7] (ATCC 9533, 72 h) is > 100 µg/mL.

`COc1ccc(C2COc3cc(O)ccc3C2)c(OC)c1O` (racemic) [MUCRONULATOL(+/-)]: the MIC in assay [1] was > 100 µg/mL; in assay [2] it was > 100 µg/mL; in assay [3], 50 µg/mL (≈ 165 µM); in assay [4] (ATCC 10259, 72 h) it was > 100 µg/mL; in assay [5] (ATCC 7861, 72 h), > 100 µg/mL; in assay [6] (ATCC 6275, 72 h), > 100 µg/mL. The MIC in assay [7] (ATCC 9533, 72 h) came out at 25 µg/mL (≈ 82.7 µM).

`CN(C)[C@@H]1C(O)=C(C(N)=O)C(=O)[C@@]2(O)C(O)=C3C(=O)c4c(O)cccc4[C@@](C)(O)[C@H]3C[C@@H]12` [TETRACYCLINE]: the results for the MIC in assay [1], in assay [2] and in assay [3] were 0.6 µg/mL (≈ 1.35 µM), 2.5 µg/mL (≈ 5.63 µM) and 1.2 µg/mL (≈ 2.7 µM), respectively.

Regarding `COC1=CC(=O)C([C@@H]2COc3cc(O)ccc3C2)=CC1=O`, the MIC in assay [1] was 6 µg/mL (≈ 21 µM); in assay [2], 3 µg/mL (≈ 10.5 µM); in assay [3], 6 µg/mL (≈ 21 µM); in assay [4] (ATCC 10259, 72 h), 50 µg/mL (≈ 175 µM); in assay [5] (ATCC 7861, 72 h), > 100 µg/mL; in assay [6] (ATCC 6275, 72 h), 100 µg/mL (≈ 349 µM). In assay [7] (ATCC 9533, 72 h), this molecule gave an MIC of 25 µg/mL (≈ 87.3 µM). Besides, in assay [8] (read-out: ED50 (the source's name)), the EC50 is 0.5 µg/mL (≈ 1.75 µM).

`COC1=CC(=O)C(c2coc3cc(O)cc(O)c3c2=O)=CC1=O`: the MIC is > 100 µg/mL in assay [1]; 100 µg/mL (≈ 318 µM) in assay [2]; 50 µg/mL (≈ 159 µM) in assay [3]; > 100 µg/mL in assay [4] (ATCC 10259, 72 h); > 100 µg/mL in assay [5] (ATCC 7861, 72 h); > 100 µg/mL in assay [6] (ATCC 6275, 72 h). Besides, the MIC in assay [7] (ATCC 9533, 72 h) was determined as 100 µg/mL (≈ 318 µM). Further, in assay [8], the ED50 result was “inactive”.

Consider NYSTATIN, for which the MIC in assay [4] is 1.5 µg/mL; in assay [5], 6 µg/mL; in assay [6], 6 µg/mL; in assay [7], 3 µg/mL.
